In ChEMBL document CHEMBL1201862, “PubChem BioAssay data set” (2004):
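All cell lines were grown in 96-well plates and treated with compound for 48 hours. GI50 marks 50% less growth.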 Active and inactive are the calls of the source. No stated cut-off is given here; in the data, active = GI50 up to about 1.1 µM and inactive = higher.

Assays:
Assay in all cases: DTP human tumour cell line panel, 48 h
OVCAR-3 = test system: OVCAR-3
OVCAR-8 = test system: OVCAR-8
UACC-62 = test system: UACC-62
MOLT-4 = test system: MOLT-4
CCRF-CEM = test system: CCRF-CEM
K562 = test system: K562
IGROV-1 = test system: IGROV-1
OVCAR-5 = test system: OVCAR-5
SNB-78 = test system: SNB-78
CAKI-1 = test system: CAKI-1
HOP-62 = test system: HOP-62
DLD-1 = test system: DLD-1
SK-MEL-2 = test system: SK-MEL-2
SW-620 = test system: SW-620
HCT-15 = test system: HCT-15
SF-539 = test system: SF-539
SNB-19 = test system: SNB-19
SNB-75 = test system: SNB-75
NCI/ADR-RES = test system: NCI/ADR-RES
HOP-92 = test system: HOP-92
SK-MEL-28 = test system: SK-MEL-28
NCI-H226 = test system: NCI-H226
HCC 2998 = test system: HCC 2998
A549 = test system: A549
MCF7 = test system: MCF7
EKVX = test system: EKVX
SK-OV-3 = test system: SK-OV-3
DMS-273 = test system: DMS-273
HT-29 = test system: HT-29
A498 = test system: A498
NCI-H522 = test system: NCI-H522
NCI-H460 = test system: NCI-H460
SF-295 = test system: SF-295
DMS-114 = test system: DMS-114
XF498 = test system: XF498
UACC-257 = test system: UACC-257
KM-20L2 = test system: KM-20L2
RPMI-8226 = test system: RPMI-8226
HL-60 = test system: HL-60
Malme-3M = test system: Malme-3M
KM12 = test system: KM12
HOP-18 = test system: HOP-18
U-251 = test system: U-251
M19-MEL = test system: M19-MEL
UO-31 = test system: UO-31
OVCAR-4 = test system: OVCAR-4
RXF 393 = test system: RXF 393
LOX IMVI = test system: LOX IMVI
SF-268 = test system: SF-268
COLO 205 = test system: COLO 205
SN12C = test system: SN12C
SK-MEL-5 = test system: SK-MEL-5
HCT-116 = test system: HCT-116
NCI-H23 = test system: NCI-H23

Measured: GI50

N[C@@H](CSCSC[C@H](N)C(=O)O)C(=O)O
> 225 µM: HCT-15
inactive: OVCAR-3 > 225 µM | OVCAR-8 35.6 µM | UACC-62 > 225 µM | MOLT-4 195 µM | CCRF-CEM 89.5 µM | K562 > 225 µM | IGROV-1 > 225 µM | OVCAR-5 > 225 µM | SNB-78 126 µM | CAKI-1 > 225 µM | HOP-62 > 225 µM | DLD-1 > 225 µM | SK-MEL-2 > 225 µM | SW-620 > 225 µM | SF-539 > 225 µM | SNB-19 174 µM | SNB-75 > 225 µM | NCI/ADR-RES > 104 µM | HOP-92 > 169 µM | SK-MEL-28 > 225 µM | NCI-H226 > 225 µM | HCC 2998 > 225 µM | A549 > 225 µM | MCF7 > 225 µM | EKVX > 225 µM | SK-OV-3 > 225 µM | DMS-273 > 225 µM | HT-29 > 225 µM | A498 > 225 µM | NCI-H522 > 225 µM | NCI-H460 > 225 µM | SF-295 > 225 µM | DMS-114 > 225 µM | XF498 > 225 µM | UACC-257 > 225 µM | KM-20L2 > 164 µM | RPMI-8226 > 225 µM | HL-60 185 µM | Malme-3M > 225 µM | KM12 126 µM | HOP-18 > 225 µM | U-251 > 225 µM | M19-MEL > 225 µM | UO-31 > 225 µM | OVCAR-4 > 225 µM | RXF 393 > 225 µM | LOX IMVI > 225 µM | SF-268 > 225 µM | COLO 205 > 225 µM | SN12C > 225 µM | SK-MEL-5 > 225 µM | HCT-116 > 225 µM | NCI-H23 > 225 µM

CCOCCOc1ccc(OCCOCC)cc1
16.9 µM: HCT-15
inactive: OVCAR-3 30.1 µM | OVCAR-8 16.6 µM | UACC-62 19 µM | MOLT-4 7.71 µM | CCRF-CEM 2.74 µM | K562 7.91 µM | IGROV-1 20 µM | OVCAR-5 > 100 µM | SNB-78 > 42.7 µM | HOP-62 > 100 µM | DLD-1 10.1 µM | SK-MEL-2 > 43 µM | SW-620 19.2 µM | SF-539 > 10 µM | SNB-19 > 100 µM | SNB-75 18.8 µM | NCI/ADR-RES 16.4 µM | SK-MEL-28 20.3 µM | NCI-H226 31.9 µM | HCC 2998 37.3 µM | A549 37.6 µM | MCF7 14 µM | SK-OV-3 > 81.8 µM | DMS-273 21.6 µM | HT-29 16.9 µM | A498 36.3 µM | NCI-H460 29.5 µM | SF-295 25.4 µM | DMS-114 4.51 µM | XF498 16.4 µM | UACC-257 17.5 µM | KM-20L2 26.2 µM | RPMI-8226 3.51 µM | HL-60 3.4 µM | Malme-3M 13.4 µM | KM12 31.5 µM | HOP-18 10.7 µM | U-251 34 µM | M19-MEL 26 µM | UO-31 13.6 µM | OVCAR-4 6.04 µM | RXF 393 18.1 µM | LOX IMVI 17.9 µM | SF-268 17 µM | COLO 205 15.9 µM | SN12C 16.8 µM | SK-MEL-5 22.4 µM | HCT-116 17.2 µM | NCI-H23 29.9 µM
